US20230303577A1, “TEMOZOLOMIDE ANALOGS AND METHODS OF USE” (St. John's Cancer Institute, priority 2020, published 2023)
Where two headings read alike, the source gives them in different places.

Legend:
U251 = assay: cells; conditions: Homo sapiens, U-251, 72 h, read-out: IC50 U251 cell proliferation (BrdU ELISA)
Procedure: U87 cells were seeded at the density of 2,000 cells/well in 96-well plates and incubated overnight. The day after, cells were treated with various concentrations of Temozolomide or analogs for 72 hours. The BrdU ELISA proliferation assay was performed according to the manufacturer's instructions (Roche, #11647229001). Briefly, 20 μl of diluted BrdU labelling reagent was added to each well, to a final concentration of 10 μM BrdU per well. The cells were then incubated at 37° C. for 24 hours. Following this incubation, the labeling medium was aspirated from each well and 200 μl of Roche FixDenat fixing buffer was added. The plates were then incubated at 25° C. for 30 minutes. The fixing solution was removed, and 100 μl of Anti-BrdU-POD antibody was added to each well and incubated again at 25° C. for 90 minutes. Wells were rinsed three times with 200 μl of PBS, then 100 μl of Roche Substrate solution was added to each well. Following a 25 minute incubation at room temperature, the absorbance of each plate was read at 370 nm (reference wavelength: approx. 492 nm) on a Spectramax® i3x microplate reader.
The effect on U251 cell proliferation after 72 hours of treatment was also assessed using the BrdU ELISA cell proliferation assay as described in Example 11.

U87-Luc = assay: Orthotopic U87-Luc human glioblastoma tumor xenograft model; format: in vivo, Athymic Nude mice; conditions: 10 mg/kg oral gavage
Procedure: Animal studies were performed in accordance with Translational Drug Development, LLC IACUC-approved protocols. Intracranial tumors were generated by injecting 3×10^5 U87-Luc cells in […] of growth media into the right corpus striatum (1 mm anterior and 2 mm lateral to the bregma, depth of 3 mm) of Athymic Nude (Crl:NU(NCr)-Foxn1nu) mice (Charles River, Hollister, CA). Treatment was initiated 7 days after injection. […] Oral gavage treatments were formulated in 10% PEG300 in PBS. Bioluminescence (Total ROI, photons/s) images were performed under anesthesia once weekly starting on Day 1 (7 days post inoculation of U87-Luc cells) and body weights were recorded twice weekly. […] Upon peri-morbidity or at study end, mice were euthanized, brain tumor was excised from right side of brain, and a wet weight was recorded. If tumor was not grossly identifiable, expected tumor-region of the brain was collected. Tissue was fixed in formalin for 48-72 hours and then stored in 70% Ethanol.
A minimum of 100 μL/mouse of whole blood was collected via submandibular survival bleed on Day 10 and Day 27 from 3 mice per group (selected by TD2) from Groups 1, 2 and 4 for assessment of hematological toxicity. Blood was placed in K2-EDTA microtainer tubes (Becton, Dickinson & Co.; Franklin Lakes, NJ) and mixed thoroughly before CBC analysis at TD2.

A172 = assay: cells; conditions: Homo sapiens, A 172, 72 h, read-out: IC50, 72 h
Procedure: The effect of selected compounds on glioma cells viability was determined. The cells were plated at 2000 cells/well in 96 well plates. The day after, cells were treated with various concentrations of temozolomide or VMY-TP analogs.
Activity of TP-RGD was assessed in glioma cell cultures, as described in Example 11.

[1] = background statement; cited from earlier work
T98G cells = assay: Cell Titer Glo viability of T98G cells with or without O6-BG pretreatment; format: cell-based; conditions: Homo sapiens
Procedure: T98G cells, which express MGMT, were treated with TMZ or test compounds with or without 3, 6, or 24 hours of pretreatment with 100 μM of O^6-benzylguanine (O^6-BG; a pseudo-substrate of MGMT that quenches the cellular store of enzyme). T98G cell lysates were probed with anti-MGMT antibody and then with anti-a tubulin (FIG. 4). In a separate experiment, TMZ or test compounds were added to T98G cells with or without 5-6 hours of pretreatment with 100 μM O^6-BG. Cell viability was measured using the Cell Titer Glo assay after 3 days of incubation and IC50 values were determined (Table 3).

U87 cells = assay: U87 subcutaneous flank xenograft GBM model; format: in vivo, SCID mice; conditions: 20 mg/kg orally, once daily then every other day, 14 days
Procedure: A suspension of U87 cells was prepared in 1×HBSS, pH 7.4 and mixed with an equal volume (1:1) of ice cold Matrigel®. Then, 0.1 mL of the cell suspension containing 5×10^6 cells was injected subcutaneously using a 22-gauge needle into the flank region of SCID mice. Animals were monitored daily during the period between inoculation and study initiation. Treatment was started when the average tumor size reached approximately ˜100 mm^3. The test (TP3) and Reference compound (TMZ) were administered orally at 20 mg/kg at a dose volume of 10 mL/Kg. The exact dose was administered based on individual animal body weight recorded during the study period. The TP3 and TMZ treatments were scheduled for once daily dosing for 14 days. However, the dose frequency had to be reduced from once daily to every other day, due to a 10-14% loss of body weight seen in the treated mice from Day 9 until study completion (FIG. 11D). The control group was administered vehicle alone. The test and reference compounds were formulated in 0.4% (v/v) Tween 80, 2% (v/v) Glycerol and 97.6% (v/v) of 30% (w/v) Captisol (SPECD). Number of mice per treatment cohort=8. Tumor growth was measured twice weekly using a digital Vernier caliper.

IC50 (U251) [µM]	IC50 (A172) [µM]	Structure (SMILES)	effect on body weight (U87-Luc; QD×5×4, compared to control)	day 22 mean BLI value (U87-Luc; QD×5×4, control 2.43E+08) [photon/s]	retention in the cerebral parenchyma [1] [%]	IC50 (T98G cells; 5-6 h pretreatment with 100 μM O6-BG, 3 days, read-out: IC50 With O^6-BG pretreatment) [µM]	IC50 (T98G cells; 3 days, read-out: IC50 Without O^6-BG pretreatment) [µM]	tumor volume (U87 cells)	tumor weight (U87 cells)	IC50 (T98G cells; read-out: IC50 With O^6-BG pretreatment) [µM]	IC50 (T98G cells; read-out: IC50 Without O^6-BG pretreatment) [µM]
> 200	> 100	Cn1nnc2c(C(N)=O)ncn2c1=O [TMZ, temozolomide]	impacted body weight	1.87E+06	20	> 1000	> 1000	–	–	–	–
–	–	CCCCCCNC(=O)c1ncn2c(=O)n(C)nnc12 [TP3, N-hexyl-3-methyl-4-oxo-3,4-dihydroimidazo[5,1-d][1,2,3,5]tetrazine-8-carboxamide]	–	–	–	–	–	significantly reduced	significantly reduced	675	1050
